Measurements from publication PMC10123570 (The Protein Journal, 2023).
Where a name gives a salt, the structure may show the parent alone.

Molecular target: T1, High Temperature requirement A (LmHtrA) (Listeria monocytogenes, UniProt Q8YA67)
T1 sequence (Q8YA67 1-500): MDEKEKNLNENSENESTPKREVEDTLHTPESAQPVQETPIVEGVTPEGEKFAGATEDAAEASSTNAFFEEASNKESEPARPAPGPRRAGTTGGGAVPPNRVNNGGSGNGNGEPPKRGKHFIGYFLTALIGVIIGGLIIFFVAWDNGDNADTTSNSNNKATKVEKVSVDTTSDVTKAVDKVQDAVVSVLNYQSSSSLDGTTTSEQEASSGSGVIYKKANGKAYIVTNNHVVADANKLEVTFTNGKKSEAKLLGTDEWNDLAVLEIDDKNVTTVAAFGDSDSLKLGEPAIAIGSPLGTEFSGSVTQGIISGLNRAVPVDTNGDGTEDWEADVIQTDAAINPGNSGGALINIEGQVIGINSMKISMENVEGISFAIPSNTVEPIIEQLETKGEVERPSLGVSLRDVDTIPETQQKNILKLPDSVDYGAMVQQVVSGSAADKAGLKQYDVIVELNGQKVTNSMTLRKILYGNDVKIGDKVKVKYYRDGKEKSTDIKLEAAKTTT
Assay: azo-casein cleavage, spectrophotometric
Assay type: biochemical

Row | IC50 [µM] | SMILES
1 | 152 ± 7.5 | CN(C)C(=O)COC(=O)Cc1ccc(OC(=O)c2ccc(NC(=N)N)cc2)cc1 [CM, Camostat mesylate]
2 | 80.6 ± 8.5 | CCOC(=O)c1ccc(OC(=O)CCCCCNC(=N)N)cc1 [GM, Gabexate mesylate]
3 | 6.6 ± 0.4 | N=C(N)c1ccc2cc(OC(=O)c3ccc(N=C(N)N)cc3)ccc2c1 [NM, Nafamostat mesylate]
